Here are results for one compound from EPA's ToxValDB 9.5 (doi:10.2903/j.efsa.2008.148r).

Values after ≈ are worked out from the molar mass of the structure shown.

The test system of one data set is Poecilus cupreus. The data set is described as follows: LR50; higher = less toxic. As to conditions: not reported; mortality.
In another data set the test system is Macromiidae. As to conditions: acute; duration: 72 hours; biomass.
A further data set has as its system Coturnix japonica. As to conditions: acute; oral; mortality.
For the next data set, the system named is Apis mellifera. To be noted: acute; duration: 48 hours; oral; unspecified; mortality.
Another data set deals with Daphnia magna. To be noted: chronic/long-term; duration: 21 days; reproduction.
In another data set the test system is Lepidium sativum. To be noted: acute; duration: 14 days; growth.
The next data set deals with Avena sativa. To be noted: acute; duration: 14 days; growth.
Another data set has as its system Folsomia candida. As to conditions: chronic/long-term; duration: 28 days; reproduction.
Another data set relates to Canidae. As to conditions: subchronic; duration: 90 days; oral; Dog Other; clinical signs.
The subject of another data set is Oryctolagus sp. As to conditions: reproduction developmental; body weight.
A further data set relates to Mus musculus. To be noted: acute; oral; mortality.

Consider `O=[N+]([O-])/N=C1\NCCN1Cc1ccc(Cl)nc1` [Imidacloprid], for which the LR50 with Poecilus cupreus was 0.136 mg/kg. The NOAEL (as a rule, the highest tested level that showed no adverse finding) with Colinus virginianus (reproduction developmental) is 9.3 mg/kg-day; in the data set with Canidae, 7.8 mg/kg-day; in the data set on Oryctolagus sp., 8 mg/kg-day; in the data set on Rattus norvegicus (chronic), 17 mg/kg-day; with Rattus norvegicus (chronic, duration: 2 years, histopathology: nonneoplastic), 5.7 mg/kg-day; in the data set with Rattus norvegicus (subchronic, duration: 90 days, oral, histopathology: nonneoplastic), 9.3 mg/kg-day. The NOEL in the data set with Colinus virginianus (short-term, oral, diet) amounted to 29.4 mg/kg-day. In addition, the NOEC in the data set with Macromiidae was 10 mg/L; in the data set on Daphnia magna, 1.8 mg/L; in the data set on Oncorhynchus mykiss (chronic/long-term, duration: 91 days, time to swim up), 9.02 mg/L; in the data set with Lepidium sativum, 10 mg/kg; in the data set on Avena sativa, no less than 100 mg/kg; in the data set on Folsomia candida it was 1.25 mg/kg. The compound also had an NOEC with Tagia sp. (chronic/long-term, duration: 56 days, reproduction) greater than 0.178 mg/kg. The LD50 with Coturnix japonica was 31 mg/kg-day; with Apis mellifera it was 0.0037 µg/piece; with Mus musculus it was 131 mg/kg-day. The LC50 in the data set with Oncorhynchus mykiss (acute, duration: 96 hours, mortality) amounted to 211 µg/mL (≈ 825 µM); with Tagia sp. (acute, duration: 14 days, mortality) it was 10.7 mg/kg.
